Reference: patent US6511970B1, “Prevention of ovarian cancer by administration of products that induce transforming growth factor-beta and/or apoptosis in the ovarian epithelium” (New Life Pharmaceuticals Inc., priority 1996, dated 2003)

Key:
[1] = system: human ovarian epithelial cells; test: Cell death ELISA in normal human ovarian epithelial cell culture; assay type: cell-based; conditions: 100 nM, 96 hours, p=0.01
Description: Example 10 addresses the effect of administration of Vitamin D on human ovarian epithelial cells. According to this example, a cell culture derived from normal ovarian epithelial cells was plated in 24 well plates at a concentration of 100,000 cells per well. After 24 hours, the wells were treated with 1,25-dihydroxyvitamin D3 at a 100 nM concentration or control medium, and allowed to incubate for 96 hours. All experiments were carried out in triplicate. After 96 hours, cell lysates were extracted from each of the wells, and the cytoplasmic fraction was normalized for cell number and analyzed for DNA-histone complexes indicative of apoptosis using a cell death ELISA (Boehringer Mannheim). A significant (300%) increase in apoptosis (p=0.01) was measured in the human ovarian epithelial cells treated with Vitamin D as compared with the controls.

TGF β3 = test: Anti-TGF β3 immunohistochemical staining of M-100 cells; assay type: cell-based, human; conditions: 100 nM, 72 hours
Description: An immortalized cell line, M-100, derived from a normal human ovarian epithelial cell culture established in our laboratory was plated in 100 mm plates at a concentration of 1 million cells per plate, in the presence of either 1,25 (OH)2 D3 or the Vitamin D analogue […] at doses of each (100 nM) or control medium, and allowed to incubate for 72 hours. After 72 hours, cells were scraped from each of the plates, fixed on glass slides, and stained immunohistochemically with anti-TGF β3 antibody.

[2] = serum; cited from earlier work
ovarian epithelial cells = test: Apoptosis in monkey ovarian surface epithelium in vivo (Apoptag-plus staining); set-up: species or system cynomolgus monkeys; conditions: in diet, Triphasil-pattern human-equivalent doses, 28-day cycles for 2 years
Text: Young female adult cynomolgus monkeys were fed a diet for […] that contained either no hormones, the oral combination contraceptive “[…],” the estrogenic component of “[…] estradiol) alone, or the progestin component of “[…]” (levonorgestrel) alone, each administered in the same pattern that occurs in a “[…]” regimen. Doses were scaled on the basis of caloric intake, which is the accepted way to achieve human-equivalent doses. […] This cyclic regimen was repeated every 28 days continuously for 2 years. At the completion of the two years of the study, the animals were sacrificed, and their ovaries were removed and both formalin-fixed and paraffin embedded as well as flash frozen and stored at minus 70 degrees Celsius. Five-micron ovarian sections were mounted on coated slides, and stained with the Apoptag-plus kit (Oncor, Gaithersburg, Md.), which specifically labels the 3' end of free DNA fragments in cells undergoing DNA fragmentation, a characteristic of apoptosis. After staining, cells undergoing apoptosis were easily identified by their dark brown nuclear discoloration. The ovarian surface epithelium was examined histologically to assess ovarian epithelial morphology and to determine the percentage of ovarian cells undergoing apoptosis. To calculate the percentage of ovarian epithelial cells undergoing apoptosis, both the total number of ovarian epithelial cells and the number undergoing apoptosis were counted on each five-micron ovarian section. At each step, the investigators were completely blinded with regard to which treatment group was associated with each ovary.

TGF beta-3 [3] = test: TGF beta-3 immunohistochemical staining in monkey ovarian endothelial cells; assay type: in vivo, cynomolgus monkeys; conditions: Triphasil-pattern doses in diet
Text: (§1) Young female adult cynomolgus monkeys were fed a diet for three years that contained either no hormones, the oral combination contraceptive “[…],” the estrogenic component of “[…] estradiol) alone, or the progestin component of “[…]” (levonorgestrel) alone, each administered in the same pattern that occurs in a “[…]” regimen. Doses were scaled on the basis of caloric intake, which is the accepted way to achieve human-equivalent doses. […] This cyclic regimen was repeated every 28 days continuously for 2 years. In a similar experiment, the effect of hormone treatment on expression of TGF-β3 was examined in the ovaries of primates from the trial described above. This study uses monkeys that were randomized in the study above of apoptosis in the ovarian epithelium. […] Ovarian sections from each of the monkeys were stained immunohistochemically for expression of TGF beta-3, using an anti-TGF-beta-3 monoclonal antibody. […] Two blinded observers then quantitated degree of expression of TGF-β3 by grading the intensity of staining on a scale of 1-4+ in several ovarian compartments: 1) epithelium, 2) oocytes, 3) endothelial cells, 4) granulosa cells. The staining was characterized as negative (0-2+) versus positive (3-4+). The following tables show the distribution of negative (0-2) and positive (3-4) staining among the randomized treatment groups for each separate ovarian compartment (i.e.: epithelial, oocyte cytoplasm, granulosa, and endothelial).

TGF beta-3 [4] = test: TGF beta-3 immunohistochemical staining in monkey ovarian oocytes; assay type: in vivo, cynomolgus monkeys; conditions: Triphasil-pattern doses in diet
Text: as §1

[5] = system: M-100 immortalized human ovarian epithelial cells; test: Cell death ELISA (DNA-histone complexes) in M-100 cells; assay type: cell-based; conditions: 20 ng/ml, 96 hours, P<0.05
Description: Specifically, a spontaneously immortalized cell line, M-100, derived from a normal human ovarian epithelial cell culture was plated in 24 well plates at a concentration of 100,000 cells per well. […] All experiments were performed in triplicate.

TGF beta-3 [6] = test: TGF beta-3 immunohistochemical staining in monkey ovarian epithelium; assay type: in vivo, cynomolgus monkeys; conditions: Triphasil-pattern doses in diet
Text: as §1

TGF beta-3 [7] = test: TGF beta-3 immunohistochemical staining in monkey ovarian granulosa cells; assay type: in vivo, cynomolgus monkeys; conditions: Triphasil-pattern doses in diet
Text: as §1

[8] = system: ovarian and oviductal tumors; test: Two-year chemoprevention trial in the chicken; assay type: in vivo; conditions: two-year mark; feed restriction (anovulatory); preliminary results
Description: A two-year prevention trial was performed in the chicken, designed to test the hypothesis that progestins confer prevention against ovarian cancer. Two thousand two year-old birds were randomized into several groups, including untreated controls, and groups receiving the progestins provera or levonorgestrel. The trial has just completed, and tumors accrued during the trial are currently being studied.

C=C1/C(=C\C=C2/CCC[C@]3(C)[C@@H]([C@H](C)CCCC(C)(C)O)CC[C@@H]23)C[C@@H](O)C[C@@H]1O [1,25-dihydroxyvitamin D3]
increase in apoptosis as compared with the controls [1]: 300% | TGF β3 expression as compared to controls (in words) (TGF β3): significant increase in TGF β3 expression | half-life [2]: 6 to 8 h

C#C[C@]1(O)CC[C@H]2[C@@H]3CCC4=CC(=O)CC[C@@H]4[C@H]3CC[C@@]21CC [Levonorgestrel, levonorgestrel]
Median Percent of Apoptotic Cell Counts (ovarian epithelial cells): 24.9% | Range Percent of Apoptotic Cell Counts (ovarian epithelial cells): 3.5-61.8% | Endothelial staining Negative (0-2+), number of monkeys (TGF beta-3 [3]): 1 | Endothelial staining Positive (3-4+), number of monkeys (TGF beta-3 [3]): 16 | Endothelial staining Positive (3-4+), percent of monkeys (TGF beta-3 [3]): (94%) | Oocyte cytoplasm staining Negative (0-2+), number of monkeys (TGF beta-3 [4]): 3 | Oocyte cytoplasm staining Positive (3-4+), number of monkeys (TGF beta-3 [4]): 14 | Oocyte cytoplasm staining Positive (3-4+), percent of monkeys (TGF beta-3 [4]): (82%) | increase in apoptosis as compared to controls [5]: 100% | Epithelial staining Negative (0-2+), number of monkeys (TGF beta-3 [6]): 0 | Epithelial staining Positive (3-4+), number of monkeys (TGF beta-3 [6]): 17 | Epithelial staining Positive (3-4+), percent of monkeys (TGF beta-3 [6]): (100%) | Granulosa Cell staining Negative (0-2+), number of monkeys (TGF beta-3 [7]): 16 | Granulosa Cell staining Positive (3-4+), number of monkeys (TGF beta-3 [7]): 1 | Granulosa Cell staining Positive (3-4+), percent of monkeys (TGF beta-3 [7]): (6%) | fewer ovarian and oviductal tumors than controls [8]: 35%

C=C1CC[C@H](O)C/C1=C/C=C1\CCC[C@]2(C)[C@@H]([C@H](C)CCCC(C)(C)O)CC[C@@H]12 [25-hydroxyvitamin D3]
biological half-life (in words) [2]: several weeks

CC(=O)O[C@]1(C(C)=O)CC[C@H]2[C@@H]3C[C@H](C)C4=CC(=O)CC[C@]4(C)[C@H]3CC[C@@]21C [provera, medroxyprogesterone acetate]
fewer ovarian and oviductal tumors than controls [8]: 35%

C=C1/C(=C\C=C2/CCC[C@]3(C)[C@@H]([C@H](C)/C=C/C=C/C(O)(CC)CC)CC[C@@H]23)C[C@@H](O)C[C@@H]1O [E1089]
TGF β3 expression as compared to controls (in words) (TGF β3): significant increase in TGF β3 expression

C#C[C@]1(O)CC[C@H]2[C@@H]3CCc4cc(O)ccc4[C@H]3CC[C@@]21C [Ethinyl Estradiol (EE), ethinyl estradiol]
Median Percent of Apoptotic Cell Counts (ovarian epithelial cells): 1.8% | Range Percent of Apoptotic Cell Counts (ovarian epithelial cells): 0.1-28.6% | Median Percent of Apoptotic Cell Counts (ovarian epithelial cells; listed as Ethinyl-estradiol-only): 1.8% | Endothelial staining Negative (0-2+), number of monkeys (TGF beta-3 [3]): 21 | Endothelial staining Positive (3-4+), number of monkeys (TGF beta-3 [3]): 5 | Endothelial staining Positive (3-4+), percent of monkeys (TGF beta-3 [3]): (23%) | Oocyte cytoplasm staining Negative (0-2+), number of monkeys (TGF beta-3 [4]): 4 | Oocyte cytoplasm staining Positive (3-4+), number of monkeys (TGF beta-3 [4]): 17 | Oocyte cytoplasm staining Positive (3-4+), percent of monkeys (TGF beta-3 [4]): (81%) | Epithelial staining Negative (0-2+), number of monkeys (TGF beta-3 [6]): 19 | Epithelial staining Positive (3-4+), number of monkeys (TGF beta-3 [6]): 2 | Epithelial staining Positive (3-4+), percent of monkeys (TGF beta-3 [6]): (10%) | Granulosa Cell staining Negative (0-2+), number of monkeys (TGF beta-3 [7]): 13 | Granulosa Cell staining Positive (3-4+), number of monkeys (TGF beta-3 [7]): 8 | Granulosa Cell staining Positive (3-4+), percent of monkeys (TGF beta-3 [7]): (38%)
